Here are results for 13 compounds from patent US12350270B2, “Antimalarial agents” (Merck Sharp & Dohme LLC, priority 2019, dated 2025).

For one assay, the system named is parasites (ring stage, in human red blood cell culture). Description: Parasite LDH growth assay (antiparasite potency, Parasite Assay). The conditions noted are these: 0.7% rings, 2% haematocrit, 72 hours at 37° C., LDH readout of parasite growth. The assay is classed as cell-based, Plasmodium falciparum. A digest of the protocol: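 Growth was read by an LDH assay after a freeze–thaw cycle (−80 °C overnight, 4 h thaw at RT). Before that, parasites grew with compound for 72 h at 37 °C under gassed, humidified conditions. The input was a ring-stage culture adjusted to 0.7% parasitemia and 2% haematocrit in serum (5%)/albumax (0.5%)-supplemented RPMI-Hepes.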
For orientation: EC50 means the concentration that produces a half-maximal response. Compound `CCC1(CC)CC(=O)N([C@@H]2CCOc3ccc(C(=O)NC4c5ccccc5OC4(C)COC)cc32)C(=N)N1` (single isomer, unassigned) [Example 64A] returned an EC50 of 12 nM.

In the case of `CCC1(CC)CC(=O)N([C@@H]2CC(C)(C)Oc3ccc(C(=O)N[C@@H]4c5cc(F)ccc5OC(C)(C)[C@H]4O)cc32)C(=N)N1` [Example 53A, (R)-4-(4,4-diethyl-2-imino-6-oxotetrahydropyrimidin-1(2H)-yl)-N-((3S,4R)-6-fluoro-3-hydroxy-2,2-dimethylchroman-4-yl)-2,2-dimethylchromane-6-carboxamide], the EC50 was determined as 0.3 nM.

The compound `CCC1(CC)CC(=O)N([C@@H]2CCOc3ccc(C(=O)NC4c5ccccc5OC4(C)COC)cc32)C(=N)N1` (single isomer, unassigned) [Example 64C] yielded an EC50 of 64 nM.

As to `CCC1(CC)CC(=O)N([C@@H]2CCOc3ccc(C(=O)N[C@@H]4c5ccccc5CC4(C)O)cc32)C(=N)N1` (single isomer, unassigned) [Example 44B], the EC50 is 2.8 nM.

`CCC1(CC)C[C@@H](N2C(=N)NC(C)(C)CC2=O)c2cc(C(=O)N[C@@H]3c4ccccc4CC3(C)O)ccc2O1` (single isomer, unassigned) [Example 55A] showed a half-maximal effective concentration (EC50) of 24.5 nM.

Compound `COCC1(C)Oc2ccc(C(=O)N[C@@H]3c4ccccc4OC(C)(C)[C@H]3O)cc2C1N1C(=N)NC(C)(C)CC1=O` (stereo partly drawn) [Example 256, N-[(3S,4R)-3-hydroxy-2,2-dimethyl-chroman-4-yl]-3-(2-imino-4,4-dimethyl-6-oxo-hexahydropyrimidin-1-yl)-2-(methoxymethyl)-2-methyl-3H-benzofuran-5-carboxamide] yielded an EC50 of 8.9 nM.

`CC1(C)CC(=O)N([C@@H]2CCOc3ccc(C(=O)N[C@H]4CC(C)(C)Oc5ccccc54)cc32)C(=N)N1` [Example 12A, (R)-N-((S)-2,2-dimethylchroman-4-yl)-4-(2-imino-4,4-dimethyl-6-oxotetrahydropyrimidin-1(2H)-yl)chromane-6-carboxamide]: the response was half-maximal at 1.1 nM (EC50).

As for `CCC1(CC)CC(=O)N([C@@H]2CCOc3ccc(C(=O)NC4c5ccccc5OCC4O)cc32)C(=N)N1` (single isomer, unassigned) [Example 8B], a half-maximal effect (EC50) was put at 22 nM.

The assay is the same for the next values; noted with them: Plasmodium falciparum, Erythrocyte, 72 h, 0.7% rings, 2% haematocrit, 72 hours at 37° C., LDH readout of parasite growth.
On to `CCC1(CC)CC(=O)N([C@@H]2CC(C)(C)Oc3ccc(C(=O)N[C@@H]4c5ccccc5OC[C@H]4O)cc32)C(=N)N1` [Example 36B, (R)-4-(4,4-diethyl-2-imino-6-oxotetrahydropyrimidin-1(2H)-yl)-N-((3 S,4R)-3-hydroxychroman-4-yl)-2,2-dimethylchromane-6-carboxamide], for which a half-maximal response (EC50) required 2.2 nM.

Compound `CC[C@]1(C)CC(=O)N([C@@H]2CCc3ccc(C(=O)N[C@@H]4c5ccccc5OC[C@@]4(C)O)cc32)C(=N)N1` [Example 100, (3R)-3-[(4R)-4-ethyl-2-imino-4-methyl-6-oxo-hexahydropyrimidin-1-yl]-N-[(3S,4R)-3-hydroxy-3-methyl-chroman-4-yl]indane-5-carboxamide] came in with an EC50 of 5.3 nM.

For the compound `CCC1(CC)CC(=O)N([C@@H]2CCc3ccc(C(=O)N[C@@H]4c5ccccc5OC(C)(C)[C@H]4O)cc32)C(=N)N1` [Example 159, (3R)-3-(4,4-diethyl-2-imino-6-oxo-hexahydropyrimidin-1-yl)-N-[(3S,4R)-3-hydroxy-2,2-dimethyl-chroman-4-yl]indane-5-carboxamide], the EC50 stood at 0.5 nM.

Turning to `CC[C@]1(C)CC(=O)N([C@@H]2C[C@@H](C)c3ccc(C(=O)N[C@@H]4c5ccccc5OC[C@@]4(C)O)cc32)C(=N)N1` [Example 131, (1R,3R)-3-[(4R)-4-ethyl-2-imino-4-methyl-6-oxo-hexahydropyrimidin-1-yl]-N-[(3S,4R)-3-hydroxy-3-methyl-chroman-4-yl]-1-methyl-indane-5-carboxamide], the EC50 was 2 nM.

Take `CCC1(CC)CC(=O)N([C@@H]2CCOc3ccc(C(=O)NC(c4ccccc4)c4ccccc4)cc32)C(=N)N1` [Example 194, (4R)-N-benzhydryl-4-(4,4-diethyl-2-imino-6-oxo-hexahydropyrimidin-1-yl)chromane-6-carboxamide]: the EC50 stood at 0.9 nM.
